Drawing on publication PMC2772868 (Biochemistry, 2009), this text covers EC50 and Kd for two molecules.

Data set [1] has as its target LacI (lactose repressor protein) (Escherichia coli, UniProt P03023). It is filed as binding.
Another data set has as its target LacI wild-type (Escherichia coli, UniProt P03023 1-360). Put plainly: filter binding.

Chain of LacI wild-type (P03023 whole entry): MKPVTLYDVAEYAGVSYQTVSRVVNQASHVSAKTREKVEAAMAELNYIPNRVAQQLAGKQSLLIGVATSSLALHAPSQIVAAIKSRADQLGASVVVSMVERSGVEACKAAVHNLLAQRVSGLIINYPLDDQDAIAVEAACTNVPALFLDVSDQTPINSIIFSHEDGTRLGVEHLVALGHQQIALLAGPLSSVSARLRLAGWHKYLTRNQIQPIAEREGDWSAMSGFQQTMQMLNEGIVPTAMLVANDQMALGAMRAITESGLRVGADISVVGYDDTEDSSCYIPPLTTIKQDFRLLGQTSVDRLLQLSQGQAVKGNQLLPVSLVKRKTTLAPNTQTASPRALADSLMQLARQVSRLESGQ
Chain of LacI (lactose repressor protein) (P03023 whole entry): as above

Molecule `CC(C)S[C@@H]1O[C@H](CO)[C@H](O)[C@H](O)[C@H]1O` [IPTG, isopropyl-β-D-thiogalactoside] came in with a concentration for a half-maximal effect (EC50) in data set [1] of 2.2 µM.

B1: 40-bp natural lac operator (dsDNA)
DNA 1: TGTTGTGTGGAATTGTGAGCGGATAACAATTTCACACAGG
DNA 2: CCTGTGTGAAATTGTTATCCGCTCACAATTCCACACAACA
As for B1, binding with LacI wild-type was put at a Kd of 22 ± 2 pM.
